Test results taken from paper PMC4086741 (Molecular Pharmaceutics, 2014).

Assays:
[1] = target: T1, ABCG2 (Homo sapiens, UniProt Q9UNQ0); assay: Mitoxantrone transport; conditions: ABCG2-overexpressing MCF7-FLV1000 cells, probe mitoxantrone (5 μM)
T1 sequence (Q9UNQ0 1-655): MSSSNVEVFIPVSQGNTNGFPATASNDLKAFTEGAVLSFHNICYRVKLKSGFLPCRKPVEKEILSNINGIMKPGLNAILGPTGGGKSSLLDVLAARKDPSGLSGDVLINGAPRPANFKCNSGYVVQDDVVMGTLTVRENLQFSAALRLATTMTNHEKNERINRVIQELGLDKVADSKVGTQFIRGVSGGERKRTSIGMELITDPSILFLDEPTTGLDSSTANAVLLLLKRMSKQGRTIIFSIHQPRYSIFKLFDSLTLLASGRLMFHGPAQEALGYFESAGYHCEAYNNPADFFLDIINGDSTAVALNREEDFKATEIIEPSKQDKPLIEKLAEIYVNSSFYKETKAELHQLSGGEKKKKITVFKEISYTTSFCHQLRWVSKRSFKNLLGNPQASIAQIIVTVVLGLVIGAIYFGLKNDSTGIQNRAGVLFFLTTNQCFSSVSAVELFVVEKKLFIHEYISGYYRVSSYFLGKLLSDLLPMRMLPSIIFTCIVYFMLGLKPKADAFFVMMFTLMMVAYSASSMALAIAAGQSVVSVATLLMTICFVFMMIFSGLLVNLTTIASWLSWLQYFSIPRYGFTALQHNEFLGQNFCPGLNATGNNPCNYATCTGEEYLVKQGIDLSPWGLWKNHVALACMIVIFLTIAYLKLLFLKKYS

[2] = target: P-gp (Homo sapiens, UniProt P08183); assay: Calcein-AM transport; conditions: P-gp-overexpressing KB-V1 cells, probe calcein-AM (0.5 μg/mL)
Sequence of P-gp (P08183 whole entry): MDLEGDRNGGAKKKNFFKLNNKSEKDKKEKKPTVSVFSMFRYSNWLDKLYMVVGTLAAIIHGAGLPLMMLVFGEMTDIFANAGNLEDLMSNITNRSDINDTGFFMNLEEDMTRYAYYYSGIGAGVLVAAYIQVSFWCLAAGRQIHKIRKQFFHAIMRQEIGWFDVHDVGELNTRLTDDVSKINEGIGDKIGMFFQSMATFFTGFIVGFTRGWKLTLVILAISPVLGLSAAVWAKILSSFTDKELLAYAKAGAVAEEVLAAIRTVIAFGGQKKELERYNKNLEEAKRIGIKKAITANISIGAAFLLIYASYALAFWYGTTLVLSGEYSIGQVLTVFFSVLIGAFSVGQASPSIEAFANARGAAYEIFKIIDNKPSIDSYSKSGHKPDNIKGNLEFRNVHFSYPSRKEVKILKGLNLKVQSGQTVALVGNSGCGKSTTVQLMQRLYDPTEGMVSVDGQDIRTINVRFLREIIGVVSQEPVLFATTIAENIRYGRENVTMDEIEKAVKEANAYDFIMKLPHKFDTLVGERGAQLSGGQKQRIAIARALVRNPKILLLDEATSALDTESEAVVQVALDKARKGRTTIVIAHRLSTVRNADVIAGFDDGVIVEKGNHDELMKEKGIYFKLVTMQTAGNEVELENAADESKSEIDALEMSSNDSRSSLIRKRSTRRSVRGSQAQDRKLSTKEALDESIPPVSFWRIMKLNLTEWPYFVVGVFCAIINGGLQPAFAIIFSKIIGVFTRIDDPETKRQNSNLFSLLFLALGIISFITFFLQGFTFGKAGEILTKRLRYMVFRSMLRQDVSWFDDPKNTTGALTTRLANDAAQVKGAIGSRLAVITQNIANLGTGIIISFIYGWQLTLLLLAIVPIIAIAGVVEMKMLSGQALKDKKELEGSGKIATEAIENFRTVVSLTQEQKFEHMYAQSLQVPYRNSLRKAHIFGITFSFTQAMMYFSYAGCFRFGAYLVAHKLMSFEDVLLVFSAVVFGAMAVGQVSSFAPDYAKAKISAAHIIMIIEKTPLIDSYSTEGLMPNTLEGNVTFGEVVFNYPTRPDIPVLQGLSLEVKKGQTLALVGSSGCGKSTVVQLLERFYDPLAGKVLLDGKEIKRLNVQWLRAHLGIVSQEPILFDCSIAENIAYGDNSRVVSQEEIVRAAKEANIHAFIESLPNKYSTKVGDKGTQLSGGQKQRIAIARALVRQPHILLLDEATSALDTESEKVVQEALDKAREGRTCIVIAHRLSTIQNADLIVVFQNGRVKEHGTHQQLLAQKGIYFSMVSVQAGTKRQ

Molecule `Cc1cn(-c2cc(NC(=O)c3ccc(C)c(Nc4nccc(-c5cccnc5)n4)c3)cc(C(F)(F)F)c2)cn1` [nilotinib, Nilotinib] has an IC20 [1] of 0.24 µM and an IC20 [2] of 1.16 µM.
